In PubChem BioAssay (NCI):
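These data come from cells grown in 96-well plates and exposed to compound for 48 hours at five concentrations. TGI: total growth inhibition.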

What was measured:
Assay in all cases: NCI tumour cell line growth inhibition, 48 h
[1] = tested on: SN12C renal
[2] = tested on: MDA-MB-435
[3] = tested on: LOX IMVI melanoma
[4] = tested on: RPMI-8226 leukemia
[5] = tested on: HOP-62 NSCLC
[6] = tested on: TK-10 renal
[7] = tested on: HL-60(TB) leukemia
[8] = tested on: DU-145 prostate
[9] = tested on: SW-620 colon
[10] = tested on: NCI-H522 lung
[11] = tested on: NCI-H23 lung
[12] = tested on: SF-295 CNS
[13] = tested on: SK-MEL-28 melanoma
[14] = tested on: U251 CNS
[15] = tested on: NCI-H226 lung
[16] = tested on: HCT-15 colon
[17] = tested on: SF-268 CNS
[18] = tested on: ACHN renal
[19] = tested on: UACC-62 melanoma
[20] = tested on: CCRF-CEM leukemia
[21] = tested on: A498 renal
[22] = tested on: SF-539 CNS
[23] = tested on: HOP-92 NSCLC
[24] = tested on: NCI/ADR-RES ovarian
[25] = tested on: MOLT-4 leukemia
[26] = tested on: K-562 leukemia
[27] = tested on: OVCAR-5 ovarian
[28] = tested on: SNB-19 CNS
[29] = tested on: OVCAR-4 ovarian
[30] = tested on: SR leukemia
[31] = tested on: KM12 colon
[32] = tested on: PC-3 prostate
[33] = tested on: CAKI-1 renal
[34] = tested on: IGROV1 ovarian
[35] = tested on: 786-0 renal
[36] = tested on: MALME-3M melanoma
[37] = tested on: UO-31 renal
[38] = tested on: COLO 205 colon
[39] = tested on: SK-MEL-2 melanoma
[40] = tested on: A549 NSCLC
[41] = tested on: MDA-N
[42] = tested on: HT29 colon
[43] = tested on: OVCAR-3 ovarian
[44] = tested on: OVCAR-8 ovarian
[45] = tested on: RXF 393 renal
[46] = tested on: EKVX NSCLC
[47] = tested on: T-47D breast
[48] = tested on: SK-MEL-5 melanoma
[49] = tested on: M14 melanoma
[50] = tested on: UACC-257 melanoma
[51] = tested on: SNB-75 CNS
[52] = tested on: HCT-116 colon
[53] = tested on: SK-OV-3 ovarian
[54] = tested on: HS 578T breast
[55] = tested on: MDA-MB-231 breast
[56] = tested on: BT-549 breast
[57] = tested on: NCI-H460 lung
[58] = tested on: MCF7 breast

Measured: TGI

Cc1c(C(=O)O)nc(/C=C/C(=O)O)[nH]c1=O
> 100 µM: all assays above
